# Data published in patent publication US11358957B2, “Microbiocidal oxadiazole derivatives” (SYNGENTA PARTICIPATIONS AG, priority 2017, dated 2022).
# Columns and labels:
# [1] = tested on: Puccinia recondita f. Sp. Tritici; assay: Fungicidal activity against Puccinia recondita f. sp. tritici / wheat / leaf disc curative (brown rust); type: in vivo; conditions: foliar, 24 h, 200 ppm in the applied formulation, wheat leaf segments cv. Kanzler, curative (applied 1 day after inoculation), compared to untreated, read-out: disease control
# Procedure: Leaf disks or leaf segments of various plant species are cut from plants grown in a greenhouse. The cut leaf disks or segments are placed in multiwell plates (24-well format) onto water agar. The leaf disks are sprayed with a test solution before (preventative) or after (curative) inoculation. Compounds to be tested are prepared as DMSO solutions (max. 10 mg/mL) which are diluted to the appropriate concentration with 0.025% Tween20 just before spraying. The inoculated leaf disks or segments are incubated under defined conditions (temperature, relative humidity, light, etc.) according to the respective test system. A single evaluation of disease level is carried out 3 to 14 days after inoculation, depending on the pathosystem. Percent disease control relative to the untreated check leaf disks or segments is then calculated. Wheat leaf segments cv. Kanzler are placed on agar in multiwell plates (24-well format). The leaf segments are then inoculated with a spore suspension of the fungus. Plates were stored in darkness at 19C and 75% relative humidity. The formulated test compound diluted in water was applied 1 day after inoculation. The leaf segments were incubated at 19° C. and 75% relative humidity under a light regime of 12 hours light/12 hours darkness in a climate cabinet and the activity of a compound was assessed as percent disease control compared to untreated when an appropriate level of disease damage appears in untreated check leaf segments (6 to 8 days after application). The following compounds at 200 ppm in the applied formulation give at least 80% disease control in this test when compared to untreated control leaf disks under the same conditions, which show extensive disease development.
# [2] = tested on: Puccinia recondita f. Sp. Tritici; assay: Fungicidal activity against Puccinia recondita f. sp. tritici / wheat / leaf disc preventative (brown rust); type: in vivo; conditions: foliar, 200 ppm in the applied formulation, wheat leaf segments cv. Kanzler, preventative (inoculated 1 day after application), compared to untreated, read-out: disease control
# Procedure: Leaf disks or leaf segments of various plant species are cut from plants grown in a greenhouse. The cut leaf disks or segments are placed in multiwell plates (24-well format) onto water agar. The leaf disks are sprayed with a test solution before (preventative) or after (curative) inoculation. Compounds to be tested are prepared as DMSO solutions (max. 10 mg/mL) which are diluted to the appropriate concentration with 0.025% Tween20 just before spraying. The inoculated leaf disks or segments are incubated under defined conditions (temperature, relative humidity, light, etc.) according to the respective test system. A single evaluation of disease level is carried out 3 to 14 days after inoculation, depending on the pathosystem. Percent disease control relative to the untreated check leaf disks or segments is then calculated. Wheat leaf segments cv. Kanzler were placed on agar in multiwell plates (24-well format) and sprayed with the formulated test compound diluted in water. The leaf disks were inoculated with a spore suspension of the fungus 1 day after application. The inoculated leaf segments were incubated at 19° C. and 75% relative humidity (rh) under a light regime of 12 hours light/12 hours darkness in a climate cabinet and the activity of a compound was assessed as percent disease control compared to untreated when an appropriate level of disease damage appears in untreated check leaf segments (7 to 9 days after application). The following compounds at 200 ppm in the applied formulation give at least 80% disease control in this test when compared to untreated control leaf disks under the same conditions, which show extensive disease development.
# [3] = tested on: Glomerella lagenarium (Colletotrichum lagenarium); assay: Fungicidal activity against Glomerella lagenarium (Colletotrichum lagenarium) liquid culture / cucumber / preventative (anthracnose); type: cell-based; conditions: Colletotrichum orbiculare; 20 ppm in the applied formulation; liquid culture (PDB), inhibition of growth measured photometrically 3 to 4 days after application; compared to untreated; read-out: disease control
# Procedure: Mycelia fragments or conidia suspensions of a fungus prepared either freshly from liquid cultures of the fungus or from cryogenic storage, are directly mixed into nutrient broth. DMSO solutions of the test compound (max. 10 mg/mL) are diluted with 0.025% Tween20 by a factor of 50 and 10 μL of this solution is pipetted into a microtiter plate (96-well format). The nutrient broth containing the fungal spores/mycelia fragments is then added to give an end concentration of the tested compound. The test plates are incubated in the dark at 24° C. and 96% relative humidity. The inhibition of fungal growth is determined photometrically after 2 to 7 days, depending on the pathosystem, and percent antifungal activity relative to the untreated check is calculated. Conidia of the fungus from cryogenic storage are directly mixed into nutrient broth (PDB—potato dextrose broth). After placing a (DMSO) solution of test compound into a microtiter plate (96-well format), the nutrient broth containing the fungal spores is added. The test plates are incubated at 24° C. and the inhibition of growth is measured photometrically 3 to 4 days after application. The following compounds at 20 ppm in the applied formulation give at least 80% disease control in this test when compared to untreated control under the same conditions, which show extensive disease development.
smiles,measurement,setting,value
"CC(c1ccc(-c2noc(C(F)(F)F)n2)s1)n1cc(C(=O)NC2CCC2)cn1 (stereo not drawn) [Compound 1.79, N-cyclobutyl-1-[1-[5-[5-(trifluoromethyl)-1,2,4-oxadiazol-3-yl]-2-thienyl]ethyl]pyrazole-4-carboxamide]",pest or weed control at 200 ppm,[1],≥ 80%
same,pest or weed control at 200 ppm,[2],≥ 80%
same,inhibition of growth at 20 ppm,[3],≥ 80%
"O=C(NC1CCC1)c1ncn(Cc2ccc(-c3noc(C(F)(F)F)n3)s2)n1 [Compound 1.91, N-cyclobutyl-1-[[5-[5-(trifluoromethyl)-1,2,4-oxadiazol-3-yl]-2-thienyl]methyl]-1,2,4-triazole-3-carboxamide]",pest or weed control at 200 ppm,[1],≥ 80%
same,pest or weed control at 200 ppm,[2],≥ 80%
same,inhibition of growth at 20 ppm,[3],≥ 80%
"O=C(Nc1ccccc1)c1ccn(Cc2ccc(-c3noc(C(F)(F)F)n3)s2)n1 [Compound 1.130, N-phenyl-1-[[5-[5-(trifluoromethyl)-1,2,4-oxadiazol-3-yl]-2-thienyl]methyl]pyrazole-3-carboxamide]",pest or weed control at 200 ppm,[1],≥ 80%
same,pest or weed control at 200 ppm,[2],≥ 80%
same,inhibition of growth at 20 ppm,[3],≥ 80%
"C=CCNC(=O)c1ccn(Cc2ccc(-c3noc(C(F)(F)F)n3)s2)n1 [Compound 1.122, N-allyl-1-[[5-[5-(trifluoromethyl)-1,2,4-oxadiazol-3-yl]-2-thienyl]methyl]pyrazole-3-carboxamide]",pest or weed control at 200 ppm,[1],≥ 80%
same,pest or weed control at 200 ppm,[2],≥ 80%
same,inhibition of growth at 20 ppm,[3],≥ 80%
"O=C(NC1CCCCC1)c1cnn(Cc2ccc(-c3noc(C(F)(F)F)n3)s2)c1 [Compound 1.105, N-cyclohexyl-1-[[5-[5-(trifluoromethyl)-1,2,4-oxadiazol-3-yl]-2-thienyl]methyl]pyrazole-4-carboxamide]",pest or weed control at 200 ppm,[1],≥ 80%
same,pest or weed control at 200 ppm,[2],≥ 80%
same,inhibition of growth at 20 ppm,[3],≥ 80%
"FC(F)(F)c1nc(-c2ccc(Cn3cncn3)s2)no1 [Compound 1.2, 3-[5-(1,2,4-triazol-1-ylmethyl)-2-thienyl]-5-(trifluoromethyl)-1,2,4-oxadiazole]",pest or weed control at 200 ppm,[1],≥ 80%
same,pest or weed control at 200 ppm,[2],≥ 80%
same,inhibition of growth at 20 ppm,[3],≥ 80%
"CCN(CC)C(=O)c1ccnn1Cc1ccc(-c2noc(C(F)(F)F)n2)s1 [Compound 1.161, N,N-diethyl-2-[[5-[5-(trifluoromethyl)-1,2,4-oxadiazol-3-yl]-2-thienyl]methyl]pyrazole-3-carboxamide]",pest or weed control at 200 ppm,[1],≥ 80%
same,pest or weed control at 200 ppm,[2],≥ 80%
same,inhibition of growth at 20 ppm,[3],≥ 80%
"O=C(NC1CC1)c1ccn(Cc2ccc(-c3noc(C(F)(F)F)n3)s2)n1 [Compound 1.126, N-cyclopropyl-1-[[5-[5-(trifluoromethyl)-1,2,4-oxadiazol-3-yl]-2-thienyl]methyl]pyrazole-3-carboxamide]",pest or weed control at 200 ppm,[1],≥ 80%
same,pest or weed control at 200 ppm,[2],≥ 80%
same,inhibition of growth at 20 ppm,[3],≥ 80%
"C#CCNC(=O)c1ccnn1Cc1ccc(-c2noc(C(F)(F)F)n2)s1 [Compound 1.168, N-prop-2-ynyl-2-[[5-[5-(trifluoromethyl)-1,2,4-oxadiazol-3-yl]-2-thienyl]methyl]pyrazole-3-carboxamide]",pest or weed control at 200 ppm,[1],≥ 80%
same,pest or weed control at 200 ppm,[2],≥ 80%
same,inhibition of growth at 20 ppm,[3],≥ 80%
"CON(C)C(=O)c1cnn(Cc2ccc(-c3noc(C(F)(F)F)n3)s2)c1 [Compound 1.103, N-methoxy-N-methyl-1-[[5-[5-(trifluoromethyl)-1,2,4-oxadiazol-3-yl]-2-thienyl]methyl]pyrazole-4-carboxamide]",pest or weed control at 200 ppm,[1],≥ 80%
same,pest or weed control at 200 ppm,[2],≥ 80%
same,inhibition of growth at 20 ppm,[3],≥ 80%
"O=C(c1ccnn1Cc1ccc(-c2noc(C(F)(F)F)n2)s1)N1CCOCC1 [Compound 1.166, morpholino-[2-[[5-[5-(trifluoromethyl)-1,2,4-oxadiazol-3-yl]-2-thienyl]methyl]pyrazol-3-yl]methanone]",pest or weed control at 200 ppm,[1],≥ 80%
same,pest or weed control at 200 ppm,[2],≥ 80%
same,inhibition of growth at 20 ppm,[3],≥ 80%
"FC(F)(F)c1nc(-c2ccc(Cn3ccc4cccnc43)s2)no1 [Compound 1.8, 3-[5-(pyrrolo[2,3-b]pyridin-1-ylmethyl)-2-thienyl]-5-(trifluoromethyl)-1,2,4-oxadiazole]",pest or weed control at 200 ppm,[1],≥ 80%
same,pest or weed control at 200 ppm,[2],≥ 80%
same,inhibition of growth at 20 ppm,[3],≥ 80%
"CC(C)(C)CNC(=O)c1cnn(Cc2ccc(-c3noc(C(F)(F)F)n3)s2)c1 [Compound 1.101, N-(2,2-dimethylpropyl)-1-[[5-[5-(trifluoromethyl)-1,2,4-oxadiazol-3-yl]-2-thienyl]methyl]pyrazole-4-carboxamide]",pest or weed control at 200 ppm,[1],≥ 80%
same,pest or weed control at 200 ppm,[2],≥ 80%
same,inhibition of growth at 20 ppm,[3],≥ 80%
"CCC(C)NC(=O)c1ncn(Cc2ccc(-c3noc(C(F)(F)F)n3)s2)n1 (stereo not drawn) [Compound 1.144, N-sec-butyl-1-[[5-[5-(trifluoromethyl)-1,2,4-oxadiazol-3-yl]-2-thienyl]methyl]-1,2,4-triazole-3-carboxamide]",pest or weed control at 200 ppm,[1],≥ 80%
same,pest or weed control at 200 ppm,[2],≥ 80%
same,inhibition of growth at 20 ppm,[3],≥ 80%
"CC(C)CNC(=O)c1ccnn1Cc1ccc(-c2noc(C(F)(F)F)n2)s1 [Compound 1.160, N-isobutyl-2-[[5-[5-(trifluoromethyl)-1,2,4-oxadiazol-3-yl]-2-thienyl]methyl]pyrazole-3-carboxamide]",pest or weed control at 200 ppm,[1],≥ 80%
same,pest or weed control at 200 ppm,[2],≥ 80%
same,inhibition of growth at 20 ppm,[3],≥ 80%
"CCN(C)C(=O)c1cnn(C(C)c2ccc(-c3noc(C(F)(F)F)n3)s2)c1 (stereo not drawn) [Compound 1.88, N-ethyl-N-methyl-1-[1-[5-[5-(trifluoromethyl)-1,2,4-oxadiazol-3-yl]-2-thienyl]ethyl]pyrazole-4-carboxamide]",pest or weed control at 200 ppm,[1],≥ 80%
same,pest or weed control at 200 ppm,[2],≥ 80%
same,inhibition of growth at 20 ppm,[3],≥ 80%
"C=CCNC(=O)c1ncn(Cc2ccc(-c3noc(C(F)(F)F)n3)s2)n1 [Compound 1.151, N-allyl-1-[[5-[5-(trifluoromethyl)-1,2,4-oxadiazol-3-yl]-2-thienyl]methyl]-1,2,4-triazole-3-carboxamide]",pest or weed control at 200 ppm,[1],≥ 80%
same,pest or weed control at 200 ppm,[2],≥ 80%
same,inhibition of growth at 20 ppm,[3],≥ 80%
"CCN(CC)C(=O)c1cnn(Cc2ccc(-c3noc(C(F)(F)F)n3)s2)c1 [Compound 1.113, N,N-diethyl-1-[[5-[5-(trifluoromethyl)-1,2,4-oxadiazol-3-yl]-2-thienyl]methyl]pyrazole-4-carboxamide]",pest or weed control at 200 ppm,[1],≥ 80%
same,pest or weed control at 200 ppm,[2],≥ 80%
"CNC(=O)c1nccn1Cc1ccc(-c2noc(C(F)(F)F)n2)s1 [Compound 1.176, N-methyl-1-[[5-[5-(trifluoromethyl)-1,2,4-oxadiazol-3-yl]-2-thienyl]methyl]imidazole-2-carboxamide]",pest or weed control at 200 ppm,[1],≥ 80%
same,pest or weed control at 200 ppm,[2],≥ 80%
"CC(c1ccc(-c2noc(C(F)(F)F)n2)s1)n1cc(C(=O)NC2CCCC2)cn1 (stereo not drawn) [Compound 1.83, N-cyclopentyl-1-[1-[5-[5-(trifluoromethyl)-1,2,4-oxadiazol-3-yl]-2-thienyl]ethyl]pyrazole-4-carboxamide]",pest or weed control at 200 ppm,[1],≥ 80%
same,pest or weed control at 200 ppm,[2],≥ 80%
